Molecular target: Endothelial lipase (EL) (Homo sapiens (Human), UniProt Q9Y5X9)
Assay: Endothelial lipase (EL) activity assay with fluorescent substrate A10070 in DMPG vesicles
Assay type: biochemical
Procedure: Endothelial lipase activity was measured using a fluorescent substrate, A10070, (Invitrogen, CA) doped into an artificial vesicle containing DMPG (Avanti Polar Lipids) as the excipient. Vesicles were prepared by combining 285 μL of 1 mM DMPG in a 1:1 mixture of MeOH and CHCl3 with 15 μL of 1 mM A10070 in a 1:1 mixture of MeOH and CHCl3. The mixture was dried under nitrogen and resuspended in 150 μL of 50 mM HEPES pH 8.0 buffer containing 100 mM NaCl and 0.2 mM EDTA. The sample was allowed to sit at rt for 15 min and then was sonicated 3×4 mins on ice with a Branson Sonicator using duty cycle 1. This preparation provides vesicles with a mole fraction of 0.05 for the FRET substrate.
The enzymatic assay was measured using white, opaque 96-well half area plates. Each well contained 60 μL of assay buffer (50 mM HEPES pH 8.0, 50 mM NaCl and 1 mM CaCl2) and 2 ul of a DMSO solution containing compound of interest. Conditioned media obtained from HT-1080 cells, which were transformed by RAGE technology (Athersys) to overexpress endogenous EL, was added and the reaction was allowed to incubate for 20 min at 37° C. with gentle agitation. The reaction was started by the addition of 20 μL of a 1:4 dilution of vesicles. The final total reaction volume was 100 μL. The reaction rates were measured on a Gemini plate reader with an excitation wavelength of 488 nm and an emission of 530 nm. Readings were taken every 20 seconds for 10 min with agitation between each reading. The slope of the linear portion of the readout was used to calculate the rate of the reaction.

Endothelial lipase (EL), sequence (Q9Y5X9 21-500): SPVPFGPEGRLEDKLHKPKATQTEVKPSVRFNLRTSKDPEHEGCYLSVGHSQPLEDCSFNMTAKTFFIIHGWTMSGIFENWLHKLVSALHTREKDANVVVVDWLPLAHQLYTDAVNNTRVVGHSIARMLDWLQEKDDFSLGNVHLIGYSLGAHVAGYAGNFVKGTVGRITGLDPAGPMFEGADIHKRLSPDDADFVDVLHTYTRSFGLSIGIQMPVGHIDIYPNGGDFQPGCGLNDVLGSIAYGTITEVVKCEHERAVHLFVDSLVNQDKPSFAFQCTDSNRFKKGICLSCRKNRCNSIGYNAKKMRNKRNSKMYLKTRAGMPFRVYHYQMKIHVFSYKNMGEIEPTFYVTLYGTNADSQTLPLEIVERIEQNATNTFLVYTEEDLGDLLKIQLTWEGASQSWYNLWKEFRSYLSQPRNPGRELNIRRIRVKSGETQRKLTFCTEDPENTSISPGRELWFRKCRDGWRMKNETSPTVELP

Structure (SMILES) | IC50
CC(C)(C)OC(=O)N1CCC(CCc2nnc(C(=O)c3nc4ccc(-c5ccc(F)cc5)cc4s3)o2)CC1 [Example 15, tert-butyl 4-(2-(5-(6-(4-fluorophenyl)benzo[d]thiazole-2-carbonyl)-1,3,4-oxadiazol-2-yl)ethyl)piperidine-1-carboxylate] | < 10 nM
O=C(c1nnc(CC2CCNC2=O)o1)c1nc2ccc(-c3ccccc3)cc2s1 (stereo not drawn) [Example 3, 3-((5-(6-phenylbenzo[d]thiazole-2-carbonyl)-1,3,4-oxadiazol-2-yl)methyl)pyrrolidin-2-one] | < 10 nM
O=C(c1nnc(CC2CCNC2=O)o1)c1nc2ccc(-c3ccccc3)cc2s1 (stereo not drawn) [Example 1] | < 10 nM
O=C(c1nnc(NCCc2ccccc2)o1)c1nc2ccc(-c3ccc(F)cc3)cc2s1 [Example 59, (6-(4-fluorophenyl)benzo[d]thiazol-2-yl)(5-(phenethylamino)-1,3,4-oxadiazol-2-yl)methanone] | 49 nM
COc1nc(-c2nnc(C(=O)c3nc4ccc(-c5ccccc5)cc4s3)o2)c(O)c(=O)[nH]1 [Example 47, 5-Hydroxy-2-methoxy-6-(5-(6-phenylbenzo[d]thiazole-2-carbonyl)-1,3,4-oxadiazol-2-yl)pyrimidin-4(3H)-one] | 19 nM
CC(C)(C)OC(=O)N1CCC(c2nnc(C(=O)c3nc4ccc(-c5ccccc5)cc4s3)o2)CC1 [Example 20, tert-butyl 4-(5-(6-phenylbenzo[d]thiazole-2-carbonyl)-1,3,4-oxadiazol-2-yl)piperidine-1-carboxylate] | < 10 nM
CC1(Cc2nnc(C(=O)c3nc4ccc(-c5ccc(F)cc5)cc4s3)o2)NC(=O)NC1=O (stereo not drawn) [Example 35, 5-((5-(6-(4-fluoro-phenyl)benzo[d]thiazole-2-carbonyl)-1,3,4-oxadiazol-2-yl)methyl)-5-methyl-imidazolidine-2,4-dione] | < 10 nM
NC(=O)CNc1nnc(C(=O)c2nc3ccc(-c4ccccc4)cc3s2)o1 [Example 58, 2-((5-(6-phenylbenzo[d]thiazole-2-carbonyl)-1,3,4-oxadiazol-2-yl)amino) acetamide] | 104 nM
O=C(c1nnc(NCCc2ccccc2F)o1)c1nc2ccc(-c3ccc(F)cc3)cc2s1 [Example 63, (5-((2-fluorophenethyl)amino)-1,3,4-oxadiazol-2-yl)(6-(4-fluorophenyl)benzo[d]thiazol-2-yl)methanone] | 290 nM
NS(=O)(=O)NCCc1nnc(C(=O)c2nc3ccc(-c4ccccc4)cc3s2)o1 [Example 28, N-(2-(5-((6-phenyl-1,3-benzothiazol-2-yl)carbonyl)-1,3,4-oxadiazol-2-yl)ethyl)sulfamide] | 36 nM
CC(C)(C)CN1CCC(c2nnc(C(=O)c3nc4ccc(-c5ccccc5)cc4s3)o2)CC1 [Example 45, (5-(1-Neopentylpiperidin-4-yl)-1,3,4-oxadiazol-2-yl)(6-phenylbenzo[d]thiazol-2-yl)methanone] | 14 nM
O=C(c1nnc(N2CC[C@H](OCc3ccccc3)C2)o1)c1nc2ccc(-c3ccccc3)cc2s1 [Example 81, (S)-(5-(3-(benzyloxy)pyrrolidin-1-yl)-1,3,4-oxadiazol-2-yl)(6-phenylbenzo[d]thiazol-2-yl)methanone] | 490 nM
O=C(c1nnc(NC2CCCNC2=O)o1)c1nc2ccc(-c3ccccc3)cc2s1 (single isomer, unassigned) [Example 78, 3-((5-(6-phenylbenzo[d]thiazole-2-carbonyl)-1,3,4-oxadiazol-2-yl)amino)piperidin-2-one] | 27 nM
NS(=O)(=O)Cc1nnc(C(=O)c2nc3c(F)cc(-c4ccccc4)cc3s2)o1 [Example 12, (5-(4-fluoro-6-phenylbenzo[d]thiazole-2-carbonyl)-1,3,4-oxadiazol-2-yl)methanesulfonamide] | < 10 nM
O=C(c1nnc(C2CCS(=O)(=O)N2)o1)c1nc2ccc(-c3ccccc3)cc2s1 (stereo not drawn) [Example 11, (5-(1,1-dioxidoisothiazolidin-3-yl)-1,3,4-oxadiazol-2-yl)(6-phenylbenzo[d]thiazol-2-yl)methanone] | < 10 nM
O=C(c1nnc(N[C@H]2CCNC2=O)o1)c1nc2ccc(-c3ccc(F)cc3)cc2s1 [Example 54, (S)-3-((5-(6-(4-fluorophenyl)benzo [d]thiazole-2-carbonyl)-1,3,4-oxadiazol-2-yl)amino)pyrrolidin-2-one] | < 10 nM
O=C(c1nnc(CCc2nc3ccccc3[nH]2)o1)c1nc2c(F)cc(-c3ccccc3)cc2s1 [Example 14, (5-(2-(1H-benzo[d]imidazol-2-yl)ethyl)-1,3,4-oxadiazol-2-yl)(4-fluoro-6-phenylbenzo[d]thiazol-2-yl)methanone] | < 10 nM
O=C(c1nnc(N[C@H]2CCNC2=O)o1)c1nc2ccc(-c3ccccc3)cc2s1 [Example 53, (S)-3-((5-(6-phenylbenzo[d]thiazole-2-carbonyl)-1,3,4-oxadiazol-2-yl)amino)pyrrolidin-2-one] | < 10 nM
C[C@H](Nc1nnc(C(=O)c2nc3ccc(-c4ccc(F)cc4)cc3s2)o1)c1ccc(Cl)cc1 [Example 65, (S)-(5-((1-(4-chlorophenyl)ethyl)amino)-1,3,4-oxadiazol-2-yl)(6-(4-fluorophenyl)benzo[d]thiazol-2-yl)methanone] | 420 nM

Second part, the molecule after the results:

IC50 | Structure (SMILES)
190 nM | CN1CCC(Nc2nnc(C(=O)c3nc4ccc(-c5ccccc5)cc4s3)o2)C1=O (stereo not drawn) [Example 70, 1-methyl-3-((5-(6-phenylbenzo[d]thiazole-2-carbonyl)-1,3,4-oxadiazol-2-yl)amino)pyrrolidin-2-one]
290 nM | O=C(c1nnc(NC2CC2)o1)c1nc2ccc(-c3ccc(F)cc3)cc2s1 [Example 66, (5-(cyclopropylamino)-1,3,4-oxadiazol-2-yl)(6-(4-fluorophenyl)benzo[d]thiazol-2-yl)methanone]
340 nM | Cc1ccc(S(=O)(=O)Nc2nnc(C(=O)c3nc4ccc(-c5ccccc5)cc4s3)o2)cc1 [Example 90, 4-Methyl-N-(5-(6-phenylbenzo[d]thiazole-2-carbonyl)-1,3,4-oxadiazol-2-yl)benzenesulfonamide]
< 10 nM | CC1(Cc2nnc(C(=O)c3nc4ccc(-c5ccccc5)cc4s3)o2)NC(=O)NC1=O (stereo not drawn) [Example 34, 5-methyl-5-((5-(6-phenylbenzo[d]thiazole-2-carbonyl)-1,3,4-oxadiazol-2-yl)methyl)-imidazol-idine-2,4-dione]
10 nM | O=C(c1nnc(N[C@H]2CCNC2=O)o1)c1nc2c(F)cc(-c3ccccc3)cc2s1 [Example 55, (S)-3-((5-(4-fluoro-6-phenylbenzo[d]thiazole-2-carbonyl)-1,3,4-oxadiazol-2-yl)amino)pyrrolidin-2-one]
< 10 nM | CC(C)N1C(=O)NC(C)(Cc2nnc(C(=O)c3nc4ccc(-c5ccccc5)cc4s3)o2)C1=O (stereo not drawn) [Example 39, 3-isopropyl-5-methyl-5-((5-(6-phenylbenzo-[d]thiazole-2-carbonyl)-1,3,4-oxadiazol-2-yl)methyl)-imidazol-idine-2,4-dione]
101 nM | CN(c1nnc(C(=O)c2nc3ccc(-c4ccccc4)cc3s2)o1)[C@H]1CCNC1=O [Example 86, (S)-3-(Methyl(5-(6-phenylbenzo[d]thiazole-2-carbonyl)-1,3,4-oxadiazol-2-yl)amino)pyrrolidin-2-one]
28 nM | NC(=O)[C@@H](CCC(F)(F)F)Nc1nnc(C(=O)c2nc3ccc(-c4ccccc4)cc3s2)o1 [Example 75, (R)-5,5,5-trifluoro-2-((5-(6-phenylbenzo[d]thiazole-2-carbonyl)-1,3,4-oxadiazol-2-yl)amino) pentanamide]
150 nM | CC(C)NC(=O)CNc1nnc(C(=O)c2nc3ccc(-c4ccccc4)cc3s2)o1 [Example 74, N-isopropyl-2-((5-(6-phenylbenzo [d]thiazole-2-carbonyl)-1,3,4-oxadiazol-2-yl)amino)acetamide]
6.6 nM | O=C(c1nnc(NCCc2ccc(Cl)cc2)o1)c1nc2ccc(-c3ccc(F)cc3)cc2s1 [Example 64, (5-((4-chlorophenethyl)amino)-1,3,4-oxadiazol-2-yl)(6-(4-fluorophenyl)benzo[d]thiazol-2-yl)methanone]
56 nM | O=C(c1nnc(NCCc2ccc(F)cc2)o1)c1nc2ccc(-c3ccc(F)cc3)cc2s1 [Example 60, (5-((4-fluorophenethyl)amino)-1,3,4-oxadiazol-2-yl)(6-(4-fluorophenyl)benzo[d]thiazol-2-yl)methanone]
29 nM | Nc1nnc(C(=O)c2nc3ccc(-c4ccccc4)cc3s2)o1 [Example 89, (5-Amino-1,3,4-oxadiazol-2-yl)(6-phenylbenzo[d]thiazol-2-yl)methanone]
13 nM | O=C(c1nnc(CCC2CCN(CC3CC3)CC2)o1)c1nc2ccc(-c3ccccc3)cc2s1 [Example 19, (5-(2-(1-(cyclopropylmethyl)piperidin-4-yl)ethyl)-1,3,4-oxadiazol-2-yl)(6-phenylbenzo[d]thiazol-2-yl)methanone]
16 nM | O=C(c1nnc(CC2NC(=O)N(c3ccccc3)C2=O)o1)c1nc2ccc(-c3ccccc3)cc2s1 (stereo not drawn) [Example 41, 3-phenyl-5-((5-(6-phenylbenzo[d]thiazole-2-carbonyl)-1,3,4-oxadiazol-2-yl)methyl)-imidazol-idine-2,4-dione]

— US9169240B2, “Ketone linked benzothiazole inhibitors of endothelial lipase” (BRISTOL-MYERS SQUIBB COMPANY, priority 2012, dated 2015)
